Assay results as given in patent US5843950A, “1,4-dihydropyridine compound and pharmaceutical composition containing the same” (Nikken Chemicals Co., Ltd., priority 1994, dated 1998).
Read-outs that look alike come from different tables or passages of the source.

Key:
[1] = system: KCl contraction in rat arteries (thoracic aorta); assay: Action easing KCl contraction in rat arteries (thoracic aorta ring); conditions: read-out: IC50 value (50% inhibitory concentration of hyperpotassium contraction), Test Example 7, Table 7, 37° C.
Method: Action easing KCl contraction in rat arteries
The specimen was stabilized for approximately 60 minutes, then a potassium chloride solution was added to the Magnus tube to give a final concentration of […]. The positive control compound or the compound of the present invention was cumulatively added from 1×10^-10 M to 1×10^-4 M when the contraction reaction occurring at that time reached equilibrium. The contraction force was recorded by an FD-pickup (made by Nihon Kodensha) via a polygraph (made by Nihon Kodensha).

[2] = system: VCR resistant murine leukemia (P388/VCR) cells; assay: In vivo effect for overcoming resistance to vincristine in VCR resistant murine leukemia (P388/VCR) bearing mice; parameters: species or system CDF1 male mice
Source text: In vivo test of action suppressing proliferation of cancer cells by concomitant use with anti-cancer drug
The number of survival days were found and the life prolonging rate (T/C) with respect to the controls was found. The effect in overcoming resistance to an anti-cancer drug (T/V) was found by the following formula.
Effect for overcoming resistance to an anti-cancer drug (T/V) %
=[Life prolonging rate (T/C) in case of concomitant use of VCR and the compound of the present invention]/[Life prolonging rate (T/C) in case of VCR alone]×100
Using Compound 18 to Compound 22 and Compound 32, the same procedure was followed as in Test Example 5 to find the effect for overcoming resistance to an anti-cancer drug in vincristine (VCR) resistant murine leukemia cell bearing mice.

[3] = system: KCl contraction in rat arteries (thoracic aorta); assay: Action easing KCl contraction in rat arteries (thoracic aorta ring); conditions: read-out: IC50 value (50% inhibitory concentration of hypercalcemic contraction), Test Example 8, Table 8
[4] = system: TxA2 synthesis; assay: TxA2 synthesis inhibiting action test (human blood platelet microsomes); type: biochemical; conditions: prostaglandin H2
Method: TxA2 Synthesis Inhibiting Action Test
One ml of a buffer (20 mM Tris-HCl buffer, 1 mM EDTA, pH 7.5) containing human blood platelet microsomes (50 μg protein/ml) and the test compound (final concentration 10^-7 M) was agitated, then incubated at 0° C. for 30 minutes. To this was added prostaglandin H2 (100 ng/2 μl). This was incubated at 23° C. for 3 minutes to cause a reaction. Next, 1M hydrochloric acid was added to make the solution acidic and stop the reaction, then this was neutralized by 1M Tris-Base and centrifuged at 3000 rpm for 20 minutes. The amount of the TxB2 in the supernatant was measured by the EIA method (Cayman Co. kit).

[5] = Test Example 6, Table 6, same procedure as Test Example 5
[6] = Test Example 5, Table 5, T/C with VCR + compound over T/C with VCR alone ×100
[7] = Test Example 5, Table 5, VCR 100 μg/kg i.p. 5 days with compound 100 mg/kg (verapamil 60, nicardipine 75 mg/kg)

## CC1=C(C(=O)OCCCc2cccnc2)C(CCc2ccccc2)C(C(=O)OCCCc2cccnc2)=C(C)N1 [Compound 12, 2,6-dimethyl-4-(2-phenylethyl)-1,4-dihydropyridine-3,5-dicarboxylic acid bis[3-(3-pyridyl)propyl]ester]
[1]
  IC50: > 30 µM

## CCC(C)C1C(C(=O)OCCCc2cccnc2)=C(C)NC(C)=C1C(=O)OCCCc1cccnc1 (centres unmarked) [Compound 19, 2,6-dimethyl-4-(1-methylpropyl)-1,4-dihydropyridine-3,5-dicarboxylic acid bis[3-(3-pyridyl)propyl]ester]
[2]; [5]
  Effect for overcoming resistance T/V (%): 173%
  Life prolonging rate T/C (%): 176%
  Mean days of survival: 18.8 days

## CCCCCCCCC1C(C(=O)OCCC#N)=C(C)NC(C)=C1C(=O)OCCCc1cccnc1 (centres unmarked) [Compound 14, 2,6-dimethyl-4-n-octyl-1,4-dihydropyridine-3,5-dicarboxylic acid 3-(2-cyanoethyl) ester, 5-[3-(3-pyridyl)propyl]ester]
[3]
  IC50: 8.4 µM

## CC1=C(C(=O)OCCCc2cccnc2)C(C(C)C)C(C(=O)OCCN2CCN(Cc3cccnc3)CC2)=C(C)N1 (centres unmarked) [Compound 28, 2,6-dimethyl-4-isopropyl-1,4-dihydropyridine-3,5-dicarboxylic acid 3-[2-(4-(3-pyridylmethyl)piperazin-1-yl)ethyl]ester, 5-[3-(3-pyridyl)propyl]ester]
[4]
  TxA2 synthesis inhibiting action Rate of suppression at 10^-7 mol (%): 60.2%

## CCCC1C(C(=O)OCCCc2cccnc2)=C(C)NC(C)=C1C(=O)OCCCc1cccnc1 [Compound 2, 2,6-dimethyl-4-n-propyl-1,4-dihydropyridine-3,5-dicarboxylic acid bis[3-(3-pyridyl)propyl]ester]
[4]
  TxA2 synthesis inhibiting action Rate of suppression at 10^-7 mol (%): 72.0%
[1]
  IC50: > 30 µM

## CCOC(=O)C1CC1C1C(C(=O)OCCCc2cccnc2)=C(C)NC(C)=C1C(=O)OCCCc1cccnc1 (centres unmarked) [Compound 9, 2,6-dimethyl-4-(2-ethoxycarbonylcyclopropyl)-1,4-dihydropyridine-3,5-dicarboxylic acid bis[3-(3-pyridyl)propy]ester]
[1]
  IC50: 11.5 µM

## CC1=C(C(=O)OCCCc2cccnc2)C(CC2CCCC(C)(C)C2)C(C(=O)OCCCc2cccnc2)=C(C)N1 (centres unmarked) [Compound 33, 2,6-dimethyl-4-(3,3-dimethylcyclohexylmethyl)-1,4-dihydropyridine-3,5-dicarboxylic acid bis[3-(3-pyridyl)propyl]ester]
[3]
  IC50: 6.2 µM

## CC1=C(C(=O)OCCCCc2cccnc2)C(C(C)C)C(C(=O)OCCCCc2cccnc2)=C(C)N1 [Compound 30, 2,6-dimethyl-4-isopropyl-1,4-dihydropyridine-3,5-dicarboxylic acid bis[4-(3-pyridyl)butyl]ester]
[4]
  TxA2 synthesis inhibiting action Rate of suppression at 10^-7 mol (%): 69.7%

## COCCOC(=O)C1=C(C)NC(C)=C(C(=O)OC(C)C)C1c1cccc([N+](=O)[O-])c1 (centres unmarked) [Nimodipine, reference compound]
[1]
  IC50: 0.08 µM

## CC1=C(C(=O)OCCCc2cccnc2)C(C2CCCCC2)C(C(=O)OCCCc2cccnc2)=C(C)N1 [Compound 8, 2,6-dimethyl-4-cyclohexyl-1,4-dihydropyridine-3,5-dicarboxylic acid bis[3-(3-pyridyl)propyl]ester]
[4]
  TxA2 synthesis inhibiting action Rate of suppression at 10^-7 mol (%): 63.0%

## O=C(O)/C=C/c1ccc(Cn2ccnc2)cc1 [OKY-046, reference compound]
[4]
  TxA2 synthesis inhibiting action Rate of suppression at 10^-7 mol (%): 86.4%

## CC1=C(C(=O)OCCCc2cccnc2)C(C(C)c2ccccc2)C(C(=O)OCCCc2cccnc2)=C(C)N1 (centres unmarked) [Compound 7, 2,6-dimethyl-4-(1-phenylethyl)-1,4-dihydropyridine-3,5-dicarboxylic acid bis[3-(3-pyridyl)propyl]ester]
[1]
  IC50: 13 µM

## COc1ccc(CCN(C)CCCC(C#N)(c2ccc(OC)c(OC)c2)C(C)C)cc1OC (centres unmarked) [Verapamil, verapamil, reference compound]
[2]; [6]
  Effect for overcoming resistance T/V (%): 127%
[2]; [7]
  Life prolonging rate T/C (%): 136%
  Mean days of survival: 13.6 days
[1]
  IC50: 2.35 µM

## CC1=C(C(=O)OCCCc2cccnc2)C(CC(C)CC(C)(C)C)C(C(=O)OCCCc2cccnc2)=C(C)N1 (centres unmarked) [Compound 22, 2,6-dimethyl-4-(2,4,4-trimethylpentyl)-1,4-dihydropyridine-3,5-dicarboxylic acid bis[3-(3-pyridyl)propyl]ester]
[2]; [5]
  Effect for overcoming resistance T/V (%): 150%
  Life prolonging rate T/C (%): 148%
  Mean days of survival: 15.8 days
[3]
  IC50: 54 µM

## CC1=C(C(=O)OCCCc2cccnc2)C(CC(C)(C)C)C(C(=O)OCCCc2cccnc2)=C(C)N1 [Compound 4, 2,6-dimethyl-4-(2,2-dimethylpropyl)-1,4-dihydropyridine-3,5-dicarboxylic acid bis[3-(3-pyridyl)propyl]ester]
[2]; [6]
  Effect for overcoming resistance T/V (%): 136%
[2]; [7]
  Life prolonging rate T/C (%): 145%
  Mean days of survival: 14.5 days
[4]
  TxA2 synthesis inhibiting action Rate of suppression at 10^-7 mol (%): 49.1%
[1]
  IC50: 20.5 µM

## CCCCC(CC)C1C(C(=O)OCCCc2cccnc2)=C(C)NC(C)=C1C(=O)OCCCc1cccnc1 (centres unmarked) [Compound 21, 2,6-dimethyl-4-(1-ethylpentyl)-1,4-dihydropyridine-3,5-dicarboxylic acid bis[3-(3-pyridyl)propyl]ester]
[2]; [5]
  Effect for overcoming resistance T/V (%): 138%
  Life prolonging rate T/C (%): 140%
  Mean days of survival: 15.0 days
[3]
  IC50: 7 µM

## CC1=C(C(=O)OCCCc2cccnc2)CC(C(=O)OCCCc2cccnc2)=C(C)N1 [Control 1, reference compound]
[4]
  TxA2 synthesis inhibiting action Rate of suppression at 10^-7 mol (%): 74.7%

## CCC(CC)C1C(C(=O)OCCCc2cccnc2)=C(C)NC(C)=C1C(=O)OCCCc1cccnc1 [Compound 20, 2,6-dimethyl-4-(1-ethylpropyl)-1,4-dihydropyridine-3,5-dicarboxylic acid bis[3-(3-pyridyl)propyl]ester]
[2]; [5]
  Effect for overcoming resistance T/V (%): 150%
  Life prolonging rate T/C (%): 148%
  Mean days of survival: 15.8 days
[3]
  IC50: 4.2 µM

## CC1=C(C(=O)OCCCc2cccnc2)C(c2ccc(C(=O)O)cc2)C(C(=O)OCCCc2cccnc2)=C(C)N1 [Control 3, reference compound]
[4]
  TxA2 synthesis inhibiting action Rate of suppression at 10^-7 mol (%): 37.6%

## CC(C)=CCCC(C)CC1C(C(=O)OCCCc2cccnc2)=C(C)NC(C)=C1C(=O)OCCCc1cccnc1 (centres unmarked) [Compound 11, 2,6-dimethyl-4-(2,6-dimethyl-5-heptenyl)-1,4-dihydropyridine-3,5-dicarboxylic acid bis[3-(3-pyridyl)propyl]ester]
[2]; [6]
  Effect for overcoming resistance T/V (%): 128%
[2]; [7]
  Life prolonging rate T/C (%): 137%
  Mean days of survival: 13.7 days
[1]
  IC50: > 30 µM

## CC1=C(C(=O)OCCCc2cccnc2)C(C=Cc2ccco2)C(C(=O)OCCCc2cccnc2)=C(C)N1 [Compound 10, 2,6-dimethyl-4-(2-(2-furyl)ethenyl)-1,4-dihydropyridine-3,5-dicarboxylic acid bis[3-(3-pyridyl)propyl]ester]
[1]
  IC50: > 30 µM

## CC1=C(C(=O)OCc2cccnc2)C(c2ccccc2[N+](=O)[O-])C(C(=O)OCc2cccnc2)=C(C)N1 [Control 2, reference compound]
[4]
  TxA2 synthesis inhibiting action Rate of suppression at 10^-7 mol (%): 77.9%

## CCCCCCCCC1C(C(=O)OCCN2CCN(Cc3cccnc3)CC2)=C(C)NC(C)=C1C(=O)OCCN1CCN(Cc2cccnc2)CC1 [Compound 23, 2,6-dimethyl-4-n-octyl-1,4-dihydropyridine-3,5-dicarboxylic acid bis[2-(4-(3-pyridylmethyl)piperazin-1-yl)ethyl]ester]
[2]; [6]
  Effect for overcoming resistance T/V (%): 123%
[2]; [7]
  Life prolonging rate T/C (%): 132%
  Mean days of survival: 13.2 days

## CCCCCC#CC1C(C(=O)OCCCc2cccnc2)=C(C)NC(C)=C1C(=O)OCCCc1cccnc1 [Compound 32, 2,6-dimethyl-4-(1-heptynyl)-1,4-dihydropyridine-3,5-dicarboxylic acid bis[3-(3-pyridyl)propyl]ester]
[2]; [5]
  Effect for overcoming resistance T/V (%): 133%
  Life prolonging rate T/C (%): 136%
  Mean days of survival: 14.5 days
[3]
  IC50: 10.5 µM

## COC(=O)C1=C(C)NC(C)=C(C(=O)OCCCc2cccnc2)C1C(C)C (centres unmarked) [Compound 13, 2,6-dimethyl-4-isopropyl-1,4-dihydropyridine-3,5-dicarboxylic acid 3-methylester 5-[3-(3-pyridyl)propyl]ester]
[4]
  TxA2 synthesis inhibiting action Rate of suppression at 10^-7 mol (%): 71.4%
[3]
  IC50: 5.7 µM
